The text below walks through data of US10766884B2 (Pfizer Inc., priority 2018, dated 2020).

One assay has as its target CDK6/Cyclin D3 (Homo sapiens (Human), UniProt Q00534). In words: CDK6/Cyclin D3 mobility shift assay. The format is biochemical. Particulars: activated CDK6/Cyclin D3, 3.5 mM ATP, Morrison fit; read-out: CDK6_D3 Ki. The protocol: The purpose of the CDK6/Cyclin D3 assay is to evaluate the inhibition (% inhibition, Kiapp and Ki values) in the presence of small molecule inhibitors by using a fluorescence based microfluidic mobility shift assay. […] The mobility shift assay electrophoretically separates the fluorescently labeled peptides (substrate and phosphorylated product) following the kinase reaction. Both substrate and product are measured and the ratio of these values is used to generate % conversion of substrate to product by the LabChip EZ Reader.
The reaction was stopped after 95 minutes by the addition of 50 μL of 30 mM EDTA. Ki determinations were made from a plot of the fractional velocity as a function of inhibitor concentration fit to the Morrison equation with the enzyme concentration as a variable.
(§1) For CDK4 and CDK6 mobility shift assays, see also Morrison, J. F. (1969) Kinetics of the reversible inhibition of enzyme-catalysed reactions by tight-binding inhibitors, Biochimica et biophysica acta 185, 269-286; and Murphy, D. J. (2004) Determination of accurate KI values for tight-binding enzyme inhibitors: an in silico study of experimental error and assay design, Analytical biochemistry 327, 61-67.

A further assay deals with CDK4/Cyclin D1 (Homo sapiens (Human), UniProt P11802). In words: CDK4/Cyclin D1 mobility shift assay. Particulars: activated CDK4/Cyclin D1, 3.5 mM ATP, Morrison fit; read-out: CDK4D1 Ki. The format is biochemical. The protocol: The purpose CDK4/Cyclin D1 assay is to evaluate the inhibition (% inhibition, Kiapp and Ki values) in the presence of small molecule inhibitors by using a fluorescence based microfluidic mobility shift assay. […] The mobility shift assay electrophoretically separates the fluorescently labeled peptides (substrate and phosphorylated product) following the kinase reaction. Both substrate and product are measured and the ratio of these values is used to generate % Conversion of substrate to product by the LabChip EZ Reader.
Chain of CDK4/Cyclin D1 (P11802 whole entry): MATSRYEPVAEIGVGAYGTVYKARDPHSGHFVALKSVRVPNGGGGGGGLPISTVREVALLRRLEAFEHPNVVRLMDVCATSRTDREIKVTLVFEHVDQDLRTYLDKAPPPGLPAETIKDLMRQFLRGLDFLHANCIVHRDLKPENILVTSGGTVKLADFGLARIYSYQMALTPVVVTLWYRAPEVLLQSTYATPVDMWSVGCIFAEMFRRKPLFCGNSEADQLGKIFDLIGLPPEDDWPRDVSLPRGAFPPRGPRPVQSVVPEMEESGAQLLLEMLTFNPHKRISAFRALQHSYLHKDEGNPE
Chain of CDK4/Cyclin D1 (P24385 whole entry partner): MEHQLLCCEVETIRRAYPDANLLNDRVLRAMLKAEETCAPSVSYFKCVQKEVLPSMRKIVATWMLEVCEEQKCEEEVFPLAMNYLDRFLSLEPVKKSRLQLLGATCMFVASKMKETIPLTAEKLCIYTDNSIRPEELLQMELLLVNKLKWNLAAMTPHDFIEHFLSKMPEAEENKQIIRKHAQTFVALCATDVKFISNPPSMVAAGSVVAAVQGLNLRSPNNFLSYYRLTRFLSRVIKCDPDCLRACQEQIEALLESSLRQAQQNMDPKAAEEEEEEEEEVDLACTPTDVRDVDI
The reaction was stopped after 195 minutes by the addition of 50 μL of 30 mM EDTA. Ki determinations were made from a plot of the fractional velocity as a function of inhibitor concentration fit to the Morrison equation with the enzyme concentration as a variable.
as §1

The target in the next assay is CDK6 (Homo sapiens (Human), UniProt Q00534). In words: Phospho-Serine 795 Rb ELISA assay in MV4-11 cells. The format is cell-based. As to conditions: overnight treatment, phospho-Rb S795, read-out: CDK6 pRB S795 ELISA MV4-11 cells IC50. The protocol:
(§2) JEKO-1 or MV4-11 cells were seeded at 15,000 or 20,000 cells per well, respectively, in 100 μL growth media and allowed to incubate at 37° C. with 5% CO2 overnight. The following day, compounds were serially diluted from a 10 mM top dose for an 11-point 3-fold dilution curve in DMSO. Compounds were intermediately diluted 1:200 into growth media prior to diluting 1:5 on cells for final concentration 10 μM to 0.1 nM in 0.1% DMSO on cells. JEKO-1 and MV4-11 cells were treated were treated overnight, at 37° C. with 5% CO2. Cells were lysed in 100 μL/well CST lysis buffer on ice and transferred to pre-coated and blocked anti-phospho-Ser795 Rb ELISA plates for overnight incubation at 4° C. Plates were washed to remove residual, unbound cellular proteins and total Rb detection antibody added for 90 minutes at 37° C. Following wash to remove unbound total Rb antibody, the HRP tagged antibody was allowed to bind for 30 minutes at 37° C. Following wash to remove unbound HRP antibody, Glo Substrate Reagent was added and incubated protected from light for 5 to 10 minutes. Plates were read in luminescence mode and IC50 values calculated.
Background: ELISA stands for enzyme-linked immunosorbent assay.

In a further assay the target is CDK4 (Homo sapiens (Human), UniProt P11802). As to the kind of experiment: Phospho-Serine 795 Rb ELISA assay in JEKO-1 cells. Format: cell-based. As to conditions: overnight treatment, phospho-Rb S795, read-out: CDK4 pRB S795 ELISA JEKO-1 cells IC50. The protocol:
as §2

The structures appear in SMILES notation.

Chain of CDK4 (P11802 2-303): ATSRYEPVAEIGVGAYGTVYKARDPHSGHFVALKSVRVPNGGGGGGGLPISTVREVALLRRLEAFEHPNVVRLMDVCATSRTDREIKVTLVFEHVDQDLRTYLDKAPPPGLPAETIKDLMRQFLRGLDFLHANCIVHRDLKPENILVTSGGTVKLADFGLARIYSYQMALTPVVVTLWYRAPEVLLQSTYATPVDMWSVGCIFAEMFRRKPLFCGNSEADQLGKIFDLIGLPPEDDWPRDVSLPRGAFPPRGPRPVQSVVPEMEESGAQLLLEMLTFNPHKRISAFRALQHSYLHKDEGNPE
Chain of CDK4 (P24385 whole entry partner): as the sequence (P24385 whole entry partner) above
Chain of CDK6/Cyclin D3 (Q00534 whole entry): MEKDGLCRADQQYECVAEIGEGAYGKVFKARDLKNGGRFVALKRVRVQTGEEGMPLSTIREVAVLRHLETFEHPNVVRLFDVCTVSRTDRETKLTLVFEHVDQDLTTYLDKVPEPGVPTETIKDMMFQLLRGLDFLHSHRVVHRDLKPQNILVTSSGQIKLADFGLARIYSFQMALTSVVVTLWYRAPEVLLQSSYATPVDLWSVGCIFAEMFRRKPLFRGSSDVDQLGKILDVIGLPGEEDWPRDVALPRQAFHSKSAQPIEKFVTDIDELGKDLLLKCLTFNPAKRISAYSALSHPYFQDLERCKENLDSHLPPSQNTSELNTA
Chain of CDK6/Cyclin D3 (P30281 whole entry partner): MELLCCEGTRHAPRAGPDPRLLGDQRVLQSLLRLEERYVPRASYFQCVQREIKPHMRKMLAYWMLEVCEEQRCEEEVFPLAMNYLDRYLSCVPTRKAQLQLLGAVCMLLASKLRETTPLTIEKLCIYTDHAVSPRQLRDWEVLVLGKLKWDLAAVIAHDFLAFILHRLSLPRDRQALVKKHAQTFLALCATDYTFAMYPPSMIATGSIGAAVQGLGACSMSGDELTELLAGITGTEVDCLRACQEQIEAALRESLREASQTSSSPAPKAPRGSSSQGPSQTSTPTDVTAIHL
Chain of CDK6 (Q00534 whole entry): as the sequence (Q00534 whole entry) above
Chain of CDK6 (P30281 whole entry partner): as the sequence (P30281 whole entry partner) above

In the case of `Cc1nc2ccc(-c3nc(N[C@@H]4CCN(S(C)(=O)=O)C[C@H]4O)ncc3F)cc2n1C(C)(C)C` [Example A78, (3R,4R)-4-{[4-(1-tert-butyl-2-methyl-1H-benzimidazol-6-yl)-5-fluoropyrimidin-2-yl]amino}-1-(methanesulfonyl)piperidin-3-ol], the results for the Ki on CDK6/Cyclin D3 and at CDK4/Cyclin D1 were 1.8 nM and 0.1 nM, respectively. Also, the figures for the IC50 at CDK6 and at CDK4 were 73.9 nM and 26.4 nM, respectively.
For `Cc1nc2cc(F)c(-c3nc(N[C@@H]4CCN(S(C)(=O)=O)C[C@H]4O)ncc3F)cc2n1C(C)C` [Example A07], in that order: 28 nM, 1.8 nM, 520 nM and 182 nM.
For `CCc1nc2c(F)cc(-c3nc(N[C@@H]4CCN(S(C)(=O)=O)C[C@H]4O)ncc3Cl)cc2n1C1COC1` [Example A71, (3R,4R)-4-({5-chloro-4-[2-ethyl-4-fluoro-1-(oxetan-3-yl)-1H-benzimidazol-6-yl]pyrimidin-2-yl}amino)-1-(methanesulfonyl)piperidin-3-ol], in that order: 11.4 nM, 0.8 nM, 287 nM and 94.9 nM.
On the same counts, the results for `Cc1nc2ccc(-c3cc(N[C@@H]4CCOC[C@H]4O)ncc3Cl)nc2n1C(C)C` [Example D05, 1,5-anhydro-3-({5-chloro-4-[2-methyl-3-(propan-2-yl)-3H-imidazo[4,5-b]pyridin-5-yl]pyridin-2-yl}amino)-2,3-dideoxy-D-threo-pentitol] are 39.4 nM, 2.2 nM, 258 nM and 85.7 nM.
For `CC(C)n1c(CC(N)C(F)F)nc2c(F)cc(-c3nc(N[C@@H]4CCOC[C@H]4O)ncc3Cl)cc21` (single isomer, unassigned) [Example A57, 3-({4-[2-(2-amino-3,3-difluoropropyl)-4-fluoro-1-(propan-2-yl)-1H-benzimidazol-6-yl]-5-chloropyrimidin-2-yl}amino)-1,5-anhydro-2,3-dideoxy-D-threo-pentitol], the Ki (in general, the dissociation constant of the complex between target and ligand, obtained from inhibition or displacement) at CDK6/Cyclin D3 was 19.1 nM; on CDK4/Cyclin D1 it was 0.4 nM. In addition, the results for the IC50 at CDK6 and at CDK4 were 269 nM and 49 nM, respectively.
For `Cc1nc2cc(F)c(-c3ccnc(N[C@@H]4CCN(S(C)(=O)=O)C[C@H]4O)n3)cc2n1C(C)C` [Example A05], in that order: 50.8 nM, 3.3 nM, 541 nM and 225 nM.
On to `CC(C)n1c(C(C)(C)O)nc2c(F)cc(-c3nc(N[C@@H]4CCOC[C@H]4O)ncc3F)cc21` [Example A68, 1,5-anhydro-2,3-dideoxy-3-({5-fluoro-4-[4-fluoro-2-(2-hydroxpropan-2-yl)-1-(propan-2-yl)-1H-benzimidazol-6-yl]pyrimidin-2-yl}amino)-D-threo-pentitol], for which the figures for the Ki on CDK6/Cyclin D3 and at CDK4/Cyclin D1 were 14.3 nM and 0.7 nM, respectively. In addition, the IC50 (usually the midpoint of a concentration-inhibition curve) at CDK6 was determined as 235 nM; on CDK4, 48.7 nM.
For `COC(=O)N1CC[C@@H](Nc2ncc(F)c(-c3cc(F)c4nc(C)n(C(C)C)c4c3)n2)[C@H](O)C1` [Example F01, methyl (3R,4R)-4-({5-fluoro-4-[4-fluoro-2-methyl-1-(propan-2-yl)-1H-benzimidazol-6-yl]pyrimidin-2-yl}amino)-3-hydroxypiperidine-1-carboxylate], in that order: 14.6 nM, 0.8 nM, 576 nM and 114 nM.
On the same counts, the results for `C[C@@H](O)c1nc2c(F)cc(-c3nc(N[C@@H]4CCOC[C@H]4O)ncc3Cl)cc2n1C(C)(C)C` [Example A60, 1,5-anhydro-3-[(4-{1-tert-butyl-4-fluoro-2-[(1R)-1-hydroxyethyl]-1H-benzimidazol-6-yl}-5-chloropyrimidin-2-yl)amino]-2,3-dideoxy-D-threo-pentitol] are 33.6 nM, 1.6 nM, 190 nM and 65.2 nM.
On the same counts, the results for `CC(C)n1cnc2c(F)cc(-c3nc(N[C@@H]4CCN(C(=O)C5(N)CC5)C[C@H]4O)ncc3Cl)cc21` [Example F28, (1-aminocyclopropyl)[(3R,4R)-4-({5-chloro-4-[4-fluoro-1-(propan-2-yl)-1H-benzimidazol-6-yl]pyrimidin-2-yl}amino)-3-hydroxypiperidin-1-yl]methanone] are 22.3 nM, 2.2 nM, 745 nM and 191 nM.
`Cc1nc2cc(Cl)c(-c3nc(N[C@@H]4CCN(S(C)(=O)=O)C[C@H]4O)ncc3F)cc2n1C(C)C` [Example C01, (3R,4R)-4-({4-[5-chloro-2-methyl-1-(propan-2-yl)-1H-benzimidazol-6-yl]-5-fluoropyrimidin-2-yl}amino)-1-(methanesulfonyl)piperidin-3-ol]: the figures for the Ki at CDK6/Cyclin D3 and on CDK4/Cyclin D1 were 98.1 nM and 5.2 nM, respectively. Further, the IC50 worked out at 1380 nM at CDK6 and 176 nM on CDK4.
Consider `CC(O)c1nc2c(F)cc(-c3nc(N[C@@H]4CCN(S(=O)(=O)C(F)F)C[C@H]4O)ncc3Cl)cc2n1C(C)C` (stereo partly drawn) [Example F10, (3R,4R)-4-({5-chloro-4-[4-flluoro-2-(1-hydroxyethyl)-1-(propan-2-yl)-1H-benzimidazol-6-yl]pyrimidin-2-yl}amino)-1-(difluoromethanesulfonyl)piperidin-3-ol], for which the Ki at CDK4/Cyclin D1 turned out to be 0.5 nM. For the same compound, the IC50 at CDK4 worked out at 41.3 nM.
As to `CC(C)n1c([C@@H](C)O)nc2c(F)cc(-c3nc(N[C@@H]4CCN(S(C)(=O)=O)C[C@@H]4O)ncc3Cl)cc21` (single isomer, unassigned) [Example F11], the Ki on CDK4/Cyclin D1 is 5.4 nM. For the same compound, the IC50 on CDK4 turned out to be 821 nM.
Regarding `CC(C)n1cnc2c(F)cc(-c3nc(N[C@@H]4CCN(C(=O)C5COC5)C[C@H]4O)ncc3Cl)cc21` [Example F18, [(3R,4R)-4-({5-chloro-4-[4-fluoro-1-(propan-2-yl)-1H-benzimidazol-6-yl]pyrimidin-2-yl}amino)-3-hydroxypiperidin-1-yl](oxetan-3-yl)methanone], the figures for the inhibition constant Ki at CDK6/Cyclin D3 and at CDK4/Cyclin D1 were 10.1 nM and 0.9 nM, respectively. For the same compound, the IC50 on CDK4 is 31.7 nM.
For the compound `CC(C)(C)n1cnc2c(F)cc(-c3nc(N[C@@H]4CCN(S(C)(=O)=O)C[C@H]4O)ncc3F)cc21` [Example F15, (3R,4R)-4-{[4-(1-tert-butyl-4-fluoro-1H-benzimidazol-6-yl)-5-fluoropyrimidin-2-yl]amino}-1-(methanesulfonyl)piperidin-3-ol], on CDK6/Cyclin D3, the Ki was 1 nM. Further, the IC50 on CDK6 came to 39.8 nM; at CDK4, 34.4 nM.
On to `Cc1nc2ccc(-c3nc(N[C@@H]4CCN(S(C)(=O)=O)C[C@H]4O)ncc3F)cc2n1C(C)C` [Example A76, (3R,4R)-4-({5-fluoro-4-[2-methyl-1-(propan-2-yl)-1H-benzimidazol-6-yl]pyrimidin-2-yl}amino)-1-(methanesulfonyl)piperidin-3-ol], for which, at CDK6/Cyclin D3, the Ki came to 6.3 nM. On CDK6, the half-maximal inhibitory concentration (IC50) amounted to 242 nM.
`CC(C)n1c([C@@H](C)O)nc2c(F)cc(-c3nc(N[C@@H]4CCN(S(C)(=O)=O)C[C@H]4O)ncc3Cl)cc21` [Example A93, (3R,4R)-4-[(5-chloro-4-{4-fluoro-2-[(1R)-1-hydroxyethyl]-1-(propan-2-yl)-1H-benzimidazol-6-yl}pyrimidin-2-yl)amino]-1-(methanesulfonyl)piperidin-3-ol]: at CDK4/Cyclin D1, the Ki was 0.2 nM. Besides, the IC50 at CDK4 is 34.7 nM.
